Laboratory results published in patent US20020137929A1, “1 - (3-heterocyclylphenyl) isothiourea, -isourea, -guanidine and -amidine herbicidal agents” (Intellectual Property Department, BASF Aktiengesellschaft, priority 1998, published 2002).

What was measured:
ZEAMX (Corn, Field) = experiment: Preemergence herbicidal evaluation; type: in vivo, Zea mays; details: rated 4-5 weeks after treatment
Method in brief: (§1)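 Seeds were mixed with potting soil and planted on about one inch of soil, then sprayed with test compound in aqueous acetone at about 0.0156 to 0.500 kg per hectare. Plants grew under standard greenhouse care and were visually rated 0-9 against untreated controls 4-5 weeks post-treatment.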

ABUTH (Velvetleaf) = experiment: Preemergence herbicidal evaluation; type: in vivo, Abutilon theophrasti; details: rated 4-5 weeks after treatment
Method in brief: as §1

[1] = system: TRZAWR (Wheat, Winter, cv Riband); experiment: Preemergence herbicidal evaluation; type: in vivo, Triticum aestivum; details: rated 4-5 weeks after treatment
Method in brief: as §1

ECHCG (Barnyardgrass) = experiment: Preemergence herbicidal evaluation; type: in vivo, Echinochloa crus-galli; details: rated 4-5 weeks after treatment
Method in brief: as §1

[2] = system: GLXMAW (Soybean, Williams); experiment: Preemergence herbicidal evaluation; type: in vivo, Glycine max, (L.) Merr. cv Williams; details: rated 4-5 weeks after treatment
Method in brief: as §1

[3] = system: IPOHE (Morningglory, Ivyleaf); experiment: Preemergence herbicidal evaluation; type: in vivo, Ipomoea hederacea; details: rated 4-5 weeks after treatment
Method in brief: as §1

[4] = system: IPOHE (Morningglory, Ivyleaf); experiment: Postemergence herbicidal evaluation; type: in vivo, Ipomoea hederacea; details: postemergence
Method in brief: (§2)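 Seedlings grown about two weeks were sprayed at 40 psi with compound dispersed in 50/50 acetone/water plus 0.5% TWEEN 20, at about 0.0156 to 0.500 kg/ha. Plants were kept in the greenhouse and scored 4–5 weeks later on a 0–9 visual scale against untreated controls.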

GALAP (Galium) = experiment: Postemergence herbicidal evaluation; type: in vivo, Galium aparine; details: postemergence
Method in brief: as §2

MOOVA (Monochoria) = experiment: Preemergence weed control under flooded paddy conditions; type: in vivo, Monochoria vaginalis; details: rated 3-4 weeks after treatment
Method in brief: (§3)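 Silt loam, seeds in top 0.5 cm; flood held 1.5-3 cm; test cpd as acetone/water 50/50 into flood water, ~0.0313-0.500 kg/ha a.i.; greenhouse 3-4 wk; visual 0-9 score vs control.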

CASOB (Sicklepod) [5] = experiment: Postemergence herbicidal evaluation; type: in vivo, Cassia obtusifolia; details: postemergence
Method in brief: as §2

AMBEL (Ragweed, Common) = experiment: Postemergence herbicidal evaluation; type: in vivo, Ambrosia artemisifolia; details: postemergence
Method in brief: as §2

[6] = system: SAGPY (Arrowhead (Pygmaea)); experiment: Preemergence weed control under flooded paddy conditions; type: in vivo, Sagittaria pygmaea; details: rated 3-4 weeks after treatment
Method in brief: as §3

CASOB (Sicklepod) [7] = experiment: Preemergence herbicidal evaluation; type: in vivo, Cassia obtusifolia; details: rated 4-5 weeks after treatment
Method in brief: as §1

CCOC(=O)CN1C(=O)C(OC)SC1=Nc1cc(-n2c(=O)cc(C(F)(F)F)n(C)c2=O)c(F)cc1Cl (stereo not shown) [Compound 160, Ethyl 2-{{2-chloro-5-[3,6-dihydro-3-methyl-2,6-dioxo-4-(trifluoromethyl)-1(2H)-pyrimidinyl]-4-fluorophenyl}imino}-5-methoxy-4-oxo-3-thiazolidineacetate]
6.0: Preemergence herbicidal rating IPOHE ([3]; 0.0313 kg/ha) | herbicidal effect rating, MOOVA (MOOVA (Monochoria); 0.0625 kg/ha) | herbicidal effect rating, MOOVA (MOOVA (Monochoria); 0.1250 kg/ha)
8.0: Preemergence herbicidal rating ZEAMX (ZEAMX (Corn, Field); 0.5000 kg/ha) | Preemergence herbicidal rating IPOHE ([3]; 0.2500 kg/ha) | herbicidal effect rating, SAGPY ([6]; 0.2500 kg/ha)
7.0: Preemergence herbicidal rating TRZAWR ([1]; 0.5000 kg/ha) | herbicidal effect rating, MOOVA (MOOVA (Monochoria); 0.2500 kg/ha) | Herbicidal rating AMBEL (AMBEL (Ragweed, Common); rate 0.0156 kg/ha) | Herbicidal rating AMBEL (AMBEL (Ragweed, Common); rate 0.0313 kg/ha) | Preemergence herbicidal rating CASOB (CASOB (Sicklepod) [7]; 0.2500 kg/ha)
2.0: Preemergence herbicidal rating ZEAMX (ZEAMX (Corn, Field); 0.1250 kg/ha) | Preemergence herbicidal rating ECHCG (ECHCG (Barnyardgrass); 0.1250 kg/ha) | Preemergence herbicidal rating GLXMAW ([2]; 0.1250 kg/ha) | Herbicidal rating GALAP (GALAP (Galium); rate 0.0625 kg/ha) | herbicidal effect rating, SAGPY ([6]; 0.0625 kg/ha) | Preemergence herbicidal rating CASOB (CASOB (Sicklepod) [7]; 0.0625 kg/ha)
0.0: Preemergence herbicidal rating ZEAMX (ZEAMX (Corn, Field); 0.0156 kg/ha) | Preemergence herbicidal rating ZEAMX (ZEAMX (Corn, Field); 0.0313 kg/ha) | Preemergence herbicidal rating TRZAWR ([1]; 0.0156 kg/ha) | Preemergence herbicidal rating TRZAWR ([1]; 0.0313 kg/ha) | Preemergence herbicidal rating ECHCG (ECHCG (Barnyardgrass); 0.0156 kg/ha) | Preemergence herbicidal rating ECHCG (ECHCG (Barnyardgrass); 0.0313 kg/ha) | Herbicidal rating GALAP (GALAP (Galium); rate 0.0156 kg/ha) | Herbicidal rating GALAP (GALAP (Galium); rate 0.0313 kg/ha) | Herbicidal rating CASOB (CASOB (Sicklepod) [5]; rate 0.0156 kg/ha) | Herbicidal rating CASOB (CASOB (Sicklepod) [5]; rate 0.0313 kg/ha) | herbicidal effect rating, SAGPY ([6]; 0.0313 kg/ha) | Preemergence herbicidal rating CASOB (CASOB (Sicklepod) [7]; 0.0156 kg/ha) | Preemergence herbicidal rating CASOB (CASOB (Sicklepod) [7]; 0.0313 kg/ha)
3.0: Preemergence herbicidal rating IPOHE ([3]; 0.0156 kg/ha)
1.0: Preemergence herbicidal rating ZEAMX (ZEAMX (Corn, Field); 0.0625 kg/ha) | Preemergence herbicidal rating TRZAWR ([1]; 0.0625 kg/ha) | Preemergence herbicidal rating TRZAWR ([1]; 0.1250 kg/ha) | Preemergence herbicidal rating ECHCG (ECHCG (Barnyardgrass); 0.0625 kg/ha) | Preemergence herbicidal rating GLXMAW ([2]; 0.0156 kg/ha) | Preemergence herbicidal rating GLXMAW ([2]; 0.0313 kg/ha) | Preemergence herbicidal rating GLXMAW ([2]; 0.0625 kg/ha) | Herbicidal rating CASOB (CASOB (Sicklepod) [5]; rate 0.0625 kg/ha) | Preemergence herbicidal rating CASOB (CASOB (Sicklepod) [7]; 0.1250 kg/ha)
4.0: Preemergence herbicidal rating TRZAWR ([1]; 0.2500 kg/ha) | Herbicidal rating GALAP (GALAP (Galium); rate 0.1250 kg/ha) | Herbicidal rating CASOB (CASOB (Sicklepod) [5]; rate 0.1250 kg/ha)
5.0: Preemergence herbicidal rating ZEAMX (ZEAMX (Corn, Field); 0.2500 kg/ha) | Preemergence herbicidal rating ABUTH (ABUTH (Velvetleaf); 0.0156 kg/ha) | herbicidal effect rating, MOOVA (MOOVA (Monochoria); 0.0313 kg/ha) | herbicidal effect rating, SAGPY ([6]; 0.1250 kg/ha)
9.0: Preemergence herbicidal rating ABUTH (ABUTH (Velvetleaf); 0.0313 kg/ha) | Preemergence herbicidal rating ABUTH (ABUTH (Velvetleaf); 0.0625 kg/ha) | Preemergence herbicidal rating ABUTH (ABUTH (Velvetleaf); 0.1250 kg/ha) | Preemergence herbicidal rating ABUTH (ABUTH (Velvetleaf); 0.2500 kg/ha) | Preemergence herbicidal rating ABUTH (ABUTH (Velvetleaf); 0.5000 kg/ha) | Preemergence herbicidal rating ECHCG (ECHCG (Barnyardgrass); 0.2500 kg/ha) | Preemergence herbicidal rating ECHCG (ECHCG (Barnyardgrass); 0.5000 kg/ha) | Preemergence herbicidal rating GLXMAW ([2]; 0.2500 kg/ha) | Preemergence herbicidal rating GLXMAW ([2]; 0.5000 kg/ha) | Preemergence herbicidal rating IPOHE ([3]; 0.0625 kg/ha) | Preemergence herbicidal rating IPOHE ([3]; 0.1250 kg/ha) | Preemergence herbicidal rating IPOHE ([3]; 0.5000 kg/ha) | Herbicidal rating IPOHE ([4]; rate 0.0156 kg/ha) | Herbicidal rating IPOHE ([4]; rate 0.0313 kg/ha) | Herbicidal rating IPOHE ([4]; rate 0.0625 kg/ha) | Herbicidal rating IPOHE ([4]; rate 0.1250 kg/ha) | Herbicidal rating AMBEL (AMBEL (Ragweed, Common); rate 0.0625 kg/ha) | Herbicidal rating AMBEL (AMBEL (Ragweed, Common); rate 0.1250 kg/ha) | Preemergence herbicidal rating CASOB (CASOB (Sicklepod) [7]; 0.5000 kg/ha)

Cc1ccccc1CN1C(=O)CSC1=Nc1cc(-n2c(=O)cc(C(F)(F)F)n(C)c2=O)c(F)cc1Cl [Compound 129, 3-{4-Chloro-2-fluoro-5-{[3-(o-methylbenzyl)-4-oxo-2-thiazolidinylidene]amino}phenyl}-1-methyl-6-(trifluoromethyl)-2,4 (1H,3H)-pyrimidinedione]
4.0: Preemergence herbicidal rating GLXMAW ([2]; rate 0.2500 kg/ha) | Herbicidal rating GALAP (GALAP (Galium); rate 0.0313 kg/ha) | Herbicidal rating GALAP (GALAP (Galium); rate 0.0625 kg/ha) | Herbicidal rating CASOB (CASOB (Sicklepod) [5]; rate 0.0313 kg/ha) | Herbicidal rating CASOB (CASOB (Sicklepod) [5]; rate 0.0625 kg/ha)
8.0: Preemergence herbicidal rating CASOB (CASOB (Sicklepod) [7]; rate 0.2500 kg/ha)
9.0: Preemergence herbicidal rating ABUTH (ABUTH (Velvetleaf); rate 0.0625 kg/ha) | Preemergence herbicidal rating ABUTH (ABUTH (Velvetleaf); rate 0.1250 kg/ha) | Preemergence herbicidal rating ABUTH (ABUTH (Velvetleaf); rate 0.2500 kg/ha) | Preemergence herbicidal rating IPOHE ([3]; rate 0.1250 kg/ha) | Preemergence herbicidal rating IPOHE ([3]; rate 0.2500 kg/ha) | Herbicidal rating IPOHE ([4]; rate 0.0156 kg/ha) | Herbicidal rating IPOHE ([4]; rate 0.0313 kg/ha) | Herbicidal rating IPOHE ([4]; rate 0.0625 kg/ha) | herbicidal effect rating, MOOVA (MOOVA (Monochoria); 0.1250 kg/ha) | herbicidal effect rating, MOOVA (MOOVA (Monochoria); 0.2500 kg/ha) | Herbicidal rating AMBEL (AMBEL (Ragweed, Common); rate 0.0156 kg/ha) | Herbicidal rating AMBEL (AMBEL (Ragweed, Common); rate 0.0313 kg/ha) | Herbicidal rating AMBEL (AMBEL (Ragweed, Common); rate 0.0625 kg/ha)
1.0: Preemergence herbicidal rating ZEAMX (ZEAMX (Corn, Field); rate 0.1250 kg/ha) | Preemergence herbicidal rating ZEAMX (ZEAMX (Corn, Field); rate 0.2500 kg/ha) | Preemergence herbicidal rating ABUTH (ABUTH (Velvetleaf); rate 0.0313 kg/ha) | Preemergence herbicidal rating TRZAWR ([1]; rate 0.1250 kg/ha) | Preemergence herbicidal rating TRZAWR ([1]; rate 0.2500 kg/ha) | Preemergence herbicidal rating ECHCG (ECHCG (Barnyardgrass); rate 0.1250 kg/ha) | Preemergence herbicidal rating CASOB (CASOB (Sicklepod) [7]; rate 0.0156 kg/ha) | Preemergence herbicidal rating CASOB (CASOB (Sicklepod) [7]; rate 0.0313 kg/ha) | Preemergence herbicidal rating CASOB (CASOB (Sicklepod) [7]; rate 0.0625 kg/ha)
3.0: Herbicidal rating CASOB (CASOB (Sicklepod) [5]; rate 0.0156 kg/ha)
2.0: Preemergence herbicidal rating GLXMAW ([2]; rate 0.0625 kg/ha) | Preemergence herbicidal rating GLXMAW ([2]; rate 0.1250 kg/ha) | Herbicidal rating GALAP (GALAP (Galium); rate 0.0156 kg/ha) | herbicidal effect rating, SAGPY ([6]; 0.1250 kg/ha)
0.0: Preemergence herbicidal rating ZEAMX (ZEAMX (Corn, Field); rate 0.0156 kg/ha) | Preemergence herbicidal rating ZEAMX (ZEAMX (Corn, Field); rate 0.0313 kg/ha) | Preemergence herbicidal rating ZEAMX (ZEAMX (Corn, Field); rate 0.0625 kg/ha) | Preemergence herbicidal rating ABUTH (ABUTH (Velvetleaf); rate 0.0156 kg/ha) | Preemergence herbicidal rating TRZAWR ([1]; rate 0.0156 kg/ha) | Preemergence herbicidal rating TRZAWR ([1]; rate 0.0313 kg/ha) | Preemergence herbicidal rating TRZAWR ([1]; rate 0.0625 kg/ha) | Preemergence herbicidal rating ECHCG (ECHCG (Barnyardgrass); rate 0.0156 kg/ha) | Preemergence herbicidal rating ECHCG (ECHCG (Barnyardgrass); rate 0.0313 kg/ha) | Preemergence herbicidal rating ECHCG (ECHCG (Barnyardgrass); rate 0.0625 kg/ha) | Preemergence herbicidal rating ECHCG (ECHCG (Barnyardgrass); rate 0.2500 kg/ha) | Preemergence herbicidal rating GLXMAW ([2]; rate 0.0156 kg/ha) | Preemergence herbicidal rating GLXMAW ([2]; rate 0.0313 kg/ha) | Preemergence herbicidal rating IPOHE ([3]; rate 0.0156 kg/ha) | Preemergence herbicidal rating IPOHE ([3]; rate 0.0313 kg/ha) | Preemergence herbicidal rating IPOHE ([3]; rate 0.0625 kg/ha) | herbicidal effect rating, SAGPY ([6]; 0.0313 kg/ha) | herbicidal effect rating, SAGPY ([6]; 0.0625 kg/ha)
7.0: herbicidal effect rating, MOOVA (MOOVA (Monochoria); 0.0625 kg/ha) | herbicidal effect rating, SAGPY ([6]; 0.2500 kg/ha) | Preemergence herbicidal rating CASOB (CASOB (Sicklepod) [7]; rate 0.1250 kg/ha)
6.0: herbicidal effect rating, MOOVA (MOOVA (Monochoria); 0.0313 kg/ha)
